Test systems include LOX IMVI; HCT-15; KM12; SF-295; SW-620; NCI-H23; OVCAR-8; TK-10; MDA-N; MOLT-4; HCT-116; SK-MEL-5; UO-31; CAKI-1; ACHN; UACC-257; UACC-62; SF-539; SN12C; IGROV-1.
What all share (test): NCI tumour cell line growth inhibition, 48 h

Values joined by “and” are separate entries in the source; they are usually repeats but may differ in a detail not shown here. Equal entries are not always repeated.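 All cell lines were grown in 96-well plates and treated with compound for 48 hours. At the GI50, growth is halved.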 Active and inactive are the calls of the source. Rule as the data show it: active = GI50 up to about 1.1 µM and inactive = higher.

As to `CC(C)C(C)/C=C\C(C)C1CCC2C3=CC=C4CC(O)CCC4(C)C3CCC21C` (stereo not given), the GI50 in the assay on LOX IMVI is > 42.7 µM (inactive); in the assay with HCT-15 it was over 42.8 µM; in the assay on KM12, > 54.8 µM (inactive); in the assay with SF-295, > 64.9 µM (inactive); in the assay on SW-620 it was > 49.3 µM (inactive); with NCI-H23, > 76.7 µM (inactive). The GI50 in the assay on OVCAR-8 was 29.2 µM (inactive); in the assay with TK-10, > 55 µM (inactive); in the assay on MDA-N, > 46.2 µM (inactive); in the assay with MOLT-4, 17.7 µM (inactive); with HCT-116, 39.8 µM (inactive); with SK-MEL-5 it was 23.8 µM (inactive). Also, the GI50 in the assay with UO-31 was > 48.3 µM (inactive); in the assay with CAKI-1, > 43.7 µM (inactive); in the assay with ACHN it was > 42 µM (inactive); in the assay on UACC-257, > 76.9 µM (inactive); in the assay with UACC-62 it was > 44.6 µM (inactive); in the assay on SF-539 it was > 44.6 µM (inactive). Further, the GI50 in the assay on SN12C was > 42.1 µM (inactive); in the assay on IGROV-1 it was 31.4 µM (inactive).

Turning to `N#CCN1c2ccccc2CCC1Cl` (stereo not given), the GI50 with LOX IMVI was > 10 µM (inactive); in the assay on HCT-15, over 10 µM; with KM12 it was > 10 µM (inactive); in the assay with SF-295, > 10 µM (inactive); with SW-620, > 10 µM (inactive); in the assay with NCI-H23 it was > 10 µM (inactive). Besides, the GI50 in the assay with OVCAR-8, in the assay on TK-10, with MDA-N, with MOLT-4, with HCT-116 and in the assay on SK-MEL-5 was > 10 µM (inactive) each time. Also, the GI50 in the assay on UO-31, in the assay with CAKI-1, in the assay on ACHN, in the assay on UACC-257, with UACC-62 and in the assay with SF-539 was > 10 µM (inactive) each time. In addition, the GI50 with SN12C and in the assay with IGROV-1 was > 10 µM (inactive) in each case.

`CC1=NN(c2ccc(C)cc2)C2(C1)SCC(=O)N2c1nc2ccccc2s1` (stereo not given): the GI50 was 19.6 µM (inactive) with LOX IMVI; 20.5 µM in the assay with HCT-15; 27 µM (inactive) in the assay on KM12; 13 µM (inactive) with SF-295; 24.3 µM (inactive) in the assay on SW-620; 24 µM (inactive) in the assay on NCI-H23. Besides, the GI50 is 31.6 µM (inactive) with OVCAR-8; 28 µM (inactive) in the assay with TK-10; 20.7 µM (inactive) in the assay on MDA-N; 9.66 µM (inactive) with MOLT-4; 17.8 µM (inactive) in the assay on HCT-116; 11.4 µM (inactive) in the assay with SK-MEL-5. For the same molecule, the GI50 in the assay on UO-31 is 22.9 µM (inactive); in the assay with CAKI-1, 31 µM (inactive); in the assay on ACHN, 15.6 µM (inactive); in the assay on UACC-257, 19.5 µM (inactive); with UACC-62, 14.3 µM (inactive); in the assay on SF-539 it was 19 µM (inactive). In addition, the GI50 in the assay with SN12C was 11.2 µM (inactive); in the assay on IGROV-1, 12.9 µM (inactive).

`CCN(CC)CCCNc1nncc2cc3c([nH]c4ccccc43)c(C)c12`: the GI50 in the assay with LOX IMVI is 5.18 µM (inactive); with HCT-15 it was 16 µM; in the assay on KM12, 5.18 µM (inactive); with SF-295 it was 16 µM (inactive); in the assay on SW-620, 4.4 µM (inactive); in the assay with NCI-H23 it was 14.1 µM (inactive). The GI50 in the assay on OVCAR-8 was 7.29 µM (inactive); with TK-10, 20.9 µM (inactive); in the assay with MDA-N, 16.4 µM (inactive); with MOLT-4, 1.49 µM (inactive); in the assay on HCT-116, 6.01 µM (inactive); in the assay on SK-MEL-5, 19.3 µM (inactive). Besides, the GI50 in the assay with UO-31 was 12.1 µM (inactive); in the assay with CAKI-1, 33.4 µM (inactive); in the assay on ACHN it was 10.2 µM (inactive); in the assay with UACC-257 it was 15.6 µM (inactive); in the assay with UACC-62 it was 15.7 µM (inactive); in the assay on SF-539, 16 µM (inactive). For the same molecule, the GI50 in the assay on SN12C was 6.24 µM (inactive); in the assay with IGROV-1, 3.12 µM (inactive).

On to `NCCOCC(N)C(=O)O` (stereo not given), for which the GI50 with LOX IMVI was > 100 µM (inactive) and > 77.4 µM (inactive); in the assay on HCT-15, over 100 µM; with KM12, > 100 µM (inactive); in the assay on SF-295, > 100 µM (inactive); in the assay on SW-620 it was > 100 µM (inactive); in the assay with NCI-H23, > 100 µM (inactive). In addition, the GI50 is > 100 µM (inactive) in the assay on OVCAR-8; > 100 µM (inactive) in the assay with TK-10; > 100 µM (inactive) with MDA-N; > 100 µM (inactive) in the assay with MOLT-4; > 100 µM (inactive) in the assay with HCT-116; > 100 µM (inactive) and > 95.7 µM (inactive) with SK-MEL-5. The GI50 in the assay on UO-31, in the assay on CAKI-1, in the assay on ACHN, in the assay on UACC-257, with UACC-62 and in the assay with SF-539 was > 100 µM (inactive) each time. The GI50 in the assay on SN12C and in the assay with IGROV-1 was > 100 µM (inactive) throughout.

As for `COc1cc(=O)oc(/C=C/C=C/C=C/C(C)=C\C2(C)OC(C)C(C)(O)C2O)c1C` (stereo not given), the GI50 was > 100 µM (inactive) in the assay on LOX IMVI; over 100 µM in the assay with HCT-15; 87.9 µM (inactive) in the assay with KM12; > 100 µM (inactive) in the assay with SF-295; > 100 µM (inactive) in the assay on SW-620; > 100 µM (inactive) in the assay on NCI-H23. For the same molecule, the GI50 in the assay on OVCAR-8, in the assay with TK-10, in the assay with MDA-N, in the assay on MOLT-4, in the assay on HCT-116 and with SK-MEL-5 was > 100 µM (inactive) throughout. The GI50 with UO-31, in the assay on CAKI-1, in the assay on ACHN, with UACC-257, in the assay with UACC-62 and in the assay with SF-539 was > 100 µM (inactive) throughout. Further, the GI50 in the assay with SN12C and in the assay with IGROV-1 was > 100 µM (inactive) each time.

`COC(=O)/N=[N+](\[O-])C(c1ccc(OC)cc1)C1CCCCC1` (stereo not given): the GI50 is 3.33 µM (inactive) in the assay on LOX IMVI; 1.26 µM in the assay on HCT-15; 2.39 µM (inactive) in the assay with KM12; 1.82 µM (inactive) with SF-295; 3.4 µM (inactive) with SW-620; 0.664 µM (active) in the assay with NCI-H23. Further, the GI50 in the assay on OVCAR-8 was 4.75 µM (inactive); in the assay on TK-10 it was 3.58 µM (inactive); in the assay on MDA-N, 2.03 µM (inactive); with MOLT-4 it was 2.87 µM (inactive); in the assay with HCT-116, 0.652 µM (active); in the assay with SK-MEL-5, 2.08 µM (inactive). Further, the GI50 was 5.82 µM (inactive) in the assay with UO-31; 2.12 µM (inactive) in the assay on CAKI-1; 2.56 µM (inactive) with ACHN; 1.47 µM (inactive) in the assay on UACC-257; 6.03 µM (inactive) in the assay with UACC-62; 12.3 µM (inactive) with SF-539. Besides, the GI50 was 1.8 µM (inactive) in the assay on SN12C and 4.18 µM (inactive) in the assay with IGROV-1.

In the case of `CC(CCOc1ccc2ccc(=O)oc2c1)C1=CC(=O)C(C)(C)O1` (stereo not given), the GI50 in the assay with LOX IMVI is 2.23 µM (inactive); in the assay with HCT-15, 1.71 µM; with KM12, 2.17 µM (inactive); with SF-295, 3.94 µM (inactive); with SW-620, 1.92 µM (inactive); in the assay with NCI-H23 it was 2.81 µM (inactive). Also, the GI50 with OVCAR-8 was 1.96 µM (inactive); with TK-10 it was 3.34 µM (inactive); with MDA-N, 2.77 µM (inactive); in the assay on MOLT-4 it was 2.12 µM (inactive); with HCT-116 it was 2.64 µM (inactive); in the assay with SK-MEL-5, 5.13 µM (inactive). Besides, the GI50 was 3.05 µM (inactive) in the assay with UO-31; 2.86 µM (inactive) in the assay on CAKI-1; 3.18 µM (inactive) in the assay on ACHN; 6.73 µM (inactive) in the assay on UACC-257; 3.72 µM (inactive) with UACC-62; 1.69 µM (inactive) with SF-539. For the same molecule, the figures for the GI50 in the assay with SN12C and in the assay with IGROV-1 were 1.67 µM (inactive) and 3.2 µM (inactive), respectively.

For the molecule `CC1(C)CCC[C@]2(C)[C@@H]1CC[C@@]13O[C@@H]1C1=C(CO)C(=O)O[C@]14O[C@@H]4[C@@H]23`, the GI50 in the assay on LOX IMVI is 10.8 µM (inactive); in the assay with HCT-15 it was 14.5 µM; in the assay on KM12, 18 µM (inactive); with SF-295, 16.1 µM (inactive); with SW-620, 12.8 µM (inactive); with NCI-H23, 11.7 µM (inactive). Further, the GI50 is 12.9 µM (inactive) in the assay with OVCAR-8; 17.6 µM (inactive) with TK-10; 5.78 µM (inactive) in the assay with MDA-N; 15.1 µM (inactive) with MOLT-4; 12.4 µM (inactive) with HCT-116; 13.2 µM (inactive) in the assay with SK-MEL-5. Besides, the GI50 with UO-31 is 6.05 µM (inactive); in the assay on CAKI-1 it was 12.8 µM (inactive); in the assay with ACHN, 14.3 µM (inactive); in the assay with UACC-257, 14 µM (inactive); in the assay on UACC-62, 10.9 µM (inactive); with SF-539, 17.3 µM (inactive). The GI50 in the assay on SN12C is 5.9 µM (inactive); in the assay with IGROV-1, 13.3 µM (inactive).

In the case of `Cc1ncc([N+](=O)[O-])n1CCNC(=O)CCCn1cnc([N+](=O)[O-])n1`, the GI50 in the assay with LOX IMVI is > 100 µM (inactive); with HCT-15, over 76.6 µM; with KM12 it was > 100 µM (inactive); in the assay on SF-295, > 100 µM (inactive); with SW-620 it was > 71.8 µM (inactive); with NCI-H23 it was > 100 µM (inactive). Moreover, the GI50 with OVCAR-8 was > 95.9 µM (inactive); with TK-10, > 45.8 µM (inactive); in the assay on MDA-N, > 100 µM (inactive); in the assay on MOLT-4, > 100 µM (inactive); with HCT-116, > 100 µM (inactive); in the assay with SK-MEL-5, > 72.4 µM (inactive). In addition, the GI50 with UO-31, with CAKI-1, with ACHN, with UACC-257, in the assay with UACC-62 and in the assay with SF-539 was > 100 µM (inactive) in each case. Moreover, the figures for the GI50 in the assay with SN12C and in the assay with IGROV-1 were > 41.8 µM (inactive) and > 100 µM (inactive), respectively.

The values above are taken from ChEMBL document CHEMBL1201862, “PubChem BioAssay data set” (2004).
